This note sets out measurements from patent publication US20250000859A1, “USE OF GCN2 INHIBITORS IN TREATING CANCER” (Alesta Therapeutics BV, priority 2021, published 2025).

Where two headings read alike, the source gives them in different places.

For one assay, the system named is A498 (ASS1low) cells. In words: Relative cell viability, Nuclear-ID Red / Annexin V staining (Example E). It counts as cell-based. Particulars: 16 μM arginine, 4 days. As for the experimental part: (§1) To assess the effectiveness of Compound 1 and Compound 2: A^498 (ASS1low) and 769-P (ASS1high) cells were seeded at a density of 2000 cells/well in 96-well plates in RPMI medium with 16 μM arginine, 1 g/L glucose, 2 mM L-glutamine, and 10% FCS and allowed to adhere overnight.
(§2) Cells were then treated with increasing amounts of the indicated compounds for 4 days. Afterward, cell viability was determined by staining the nuclei of the living cells with NUCLEAR-IDR Red DNA stain (Enzo Life Sciences) and the apoptotic/death cells with Annexin V CF488A (Biotium) and scanning the plates with an IncuCyte S3 instrument. Viable cells were classified as Nuclear-ID Red high and Annexin V CF488A low and relative viability was expressed as a percentage of the total number of cells/well.

A further assay has as its system 769-P (ASS1high) cells. Described as above. It counts as cell-based. Particulars: 16 μM arginine, 4 days. As for the experimental part: as §1, §2
For assay [1], the system named is Renca, CT26, MC38, B16F10 tumor cells. In words: In vivo tumor models, tumor volume (Example J). Particulars: for inhibition in tumor volume compared to control: Compound 1: 30 mg/kg p.o. BID, Compound 2: 20 mg/kg p.o. BID, endpoint day 11-20 depending on model. Details: species or system BALB/c or C57BL/6 mice. Here is the method:
Effect of GCN2 inhibition on in vivo xenograft tumor models of various ASS1 low cancer models was evaluated following treatment with compound 1, compound 2, or vehicle control. Briefly, 1,000,000 tumor cells with a total volume of 100 μl were injected into the rear flank region of 6-8 week old BALB/c or C57BL/6 female mice. The following tumor cell lines were tested: renica (renal adenocarcinoma), CT26 (colon cancer), MC 38 (colon adenocarcinoma), B16F10 (melanoma) When tumors reached a size of approximately […], mice were treated orally (PBS, 10 μl/g, i.p., twice weekly (BIW); Compound 1: 30 mg/kg, 10 μl/g, p.o., twice daily (BID); or Compound 2: 20 mg/kg, 10 μl/g, p.o., BID). Tumor volumes were measured every 3-4 days. Endpoint measurements as presented were measured at day 20 (Renca), day 14 (CT26), day 17 (MC38), and day 11 (B16F10).

Assay [2] deals with HT29 cells. In words: EdU incorporation (Example I). It counts as cell-based. Particulars: HT29 cells (low ASS1), arginine 6.25-100 μM. As for the experimental part:
(§3) EdU incorporation levels of cancer cell lines was evaluated following treatment with compound 1, compound 2, compound 3, or vehicle control (0.1% DMSO). Briefly, HT29 and HCT116 cells were seeded at 2,500 cells/well in 96 well plates in 100 μl SILAC DMEM flex media without phenol red, supplemented with 10% dialyzed fetal bovine serum (dFBS), 1 g/l glucose, 2 mM glutamine, 220 μM Lysine, and various concentrations of arginine (6.25 μM, 12.5 μM, 25 μM, and 100 μM). The cells were put in a humidified incubator at 37° C. for 24 hours. The next day compounds were added to the cells at a concentration of […]. At day 3, cells were incubated with 10 μM EdU for 24 hours. The next day EdU positive cells were labeled using the Click-it reaction cocktail per manufacturing protocol using Amplex UltraRed Dye. Fluorescence was measured using a microplate reader using filter sets appropriate for Amplex™ UntraRed reagent (ex 568 nm and em 585 nm).

Assay [3] relates to HCT116 cells. In words: EdU incorporation (Example I). Type of assay: cell-based. Particulars: HCT116 cells (high ASS1), arginine 6.25-100 μM. Here is the method:
as §3

Another assay has as its system HT29 spheroids. Briefly: Tumor spheroid growth, live-cell imaging (Example C). Type of assay: cell-based. Conditions: ASS1-low HT29 spheroids, 0-20 μM, up to 120 hours. As for the experimental part: (§4) The growth of tumor spheroids was evaluated following treatment of cells with Compound 1, Compound 2. Briefly, HT29 or HCT116 cells were seeded at 5,000 cells/well in ultra-low attachment round-bottom 96-well plates, in 100 μL SILAC DMEM Flex media without phenol red, supplemented with 10% fetal bovine serum (FBS), 1 g/L glucose, 2 mM glutamine, 220 μM lysine, and 64 μM arginine. The plates were centrifuged for 10 minutes at 125×g and put in a humidified incubator at 37° C. for 3 days before the onset of the experiment to allow spheroids to form.
(§5) Three days after seeding, 0-20 μM Compound 1, 0-20 μM Compound 2, or […] vehicle control (0.1% DMSO), were added together with the Nuclear-ID Red DNA Stain (1:100,000; ENZO Life Sciences) to detect live cells. Plates were placed in live-cell imaging and analysis platform (e.g., IncuCyte ZOOM®; 15 Essenbio) set up in a humidified incubator at 37° C. and scanned every 4 hours for up to 120 hours, at 10× magnification, to determine the relative spheroid size and cell death. Experiments were performed in quadruplicate and analyzed using live-cell imaging and analysis software (e.g., IncuCyte ZOOM® 2018A software; Essenbio).

For another assay, the system named is HCT116 spheroids. The assay is described as above. Type of assay: cell-based. Conditions: ASS1-high HCT116 spheroids, 0-20 μM, up to 120 hours. As for the experimental part:
as §4, §5

Assay [4] deals with HT29 cells. In words: Growth of colonies/spheroids in soft agar, 5 days (Example G). It counts as cell-based. Particulars: HT29 cells (ASS1 low), 64 μM arginine, read-out: IC50, growth inhibition. Here is the method:
(§6) The growth of tumor spheroids was evaluated following treatment with Compound 2. Briefly, HT29 cells were seeded at 2,000 cells/well and HCT116 cells were seeded at 1,000 cells/well in ultra-low attachment round bottom 96-well plates in soft agar with 100 μl SILAC DMEM flex media without phenol red, supplemented with 10% Dialyzed fetal bovine serum (dFBS), 1 g/l glucose, 2 mM glutamine, 220 μM Lysine, and 64 μM arginine. Various concentrations of compound 2 (1.37 nM, 4.11 nM, 12.3 nM, 37 nM, 111 nM, 333 nM, and 1000 nM) were added. Plates were placed in a humidified incubator at 37° C. and incubated for 5 days, allowing colonies to form. At endpoint, images were taken by light microscopy (3 images per well) and analyzed using ImageJ software.

For assay [5], the system named is HCT116 cells. The description is as above. Type of assay: cell-based. Conditions: Homo sapiens, HCT-116, 120 h, HCT116 cells (ASS1 high), 64 μM arginine, read-out: IC50, growth inhibition. Here is the method:
as §6

The next assay concerns A498 cells. In words: Cell viability, ATPlite luminescence (Example H). Type of assay: cell-based. Particulars: A498 cells (low ASS1). As for the experimental part:
The viability of cancer cell lines was evaluated following treatment with compound 2. Briefly, 769P and A498 cells were seeded at 100-6,400 cells/well in 96 well plates in 100 μl SILAC DMEM flex media without phenol red, supplemented with 10% dialyzed fetal bovine serum (dFBS), 1 g/l glucose, 2 mM glutamine, 220 μM Lysine, and 64 μM arginine. The cells were put in a humidified incubator at 37° C. for 24 hours. The next day compounds were added at various concentrations. At the end of the experiment, ATPlite 1 Step™ (Perkin Elmer) solution was added to each well and shaken for 2 minutes. After incubation of 10 min in the dark, luminescence was recorded on a Envision Multimode Reader to determine cell viability.

`COc1ncc(Cl)cc1S(=O)(=O)Nc1ccc(F)c(-c2ccc3nc(N)ncc3c2)c1F` [Compound 1]: the relative cell viability entry in the assay on A498 (ASS1low) cells is on record as “significantly reduces relative cell viability in a dose-dependent manner”; with 769-P (ASS1high) cells, “did not significantly relative cell viability”. Further, in assay [1] (30 mg/kg p.o. BID, Renca, CT26, MC38, B16F10, FIG. 9A), the “reduction in tumor volume compared to control” value is recorded as 60-70%. The “inhibition in tumor volume compared to control” value in assay [1] is recorded as “caused a significant inhibition in tumor volume compared to control”. Also, the EdU labeling result is listed as “cause significantly higher levels of EdU labeling” in the assay on HT29 cells [2] and “have a smaller effect on EdU labeling” with HCT116 cells [3]. Besides, the “spheroid growth compared to DMSO-treated spheroids” value with HT29 spheroids is on record as “significantly reduces spheroid growth in a dose-dependent manner”. In the assay with HCT116 spheroids, the spheroid growth result is “does not reduce spheroid growth”.

In general, IC50 refers to the concentration that inhibits the measured activity by half. `Nc1ncc2cc(-c3c(F)ccc(NS(=O)(=O)c4cc(Cl)ccc4Cl)c3F)ccc2n1` [Compound 2]: the IC50 was 0.0514 µM with HT29 cells [4]; 0.0524 µM in the assay on HT29 cells [4] (Homo sapiens, HT-29, 120 h); 1.33 µM in the assay with HCT116 cells [5]. Also, the results for the relative cell viability entry in the assay on A498 (ASS1low) cells and in the assay with 769-P (ASS1high) cells were “significantly reduces relative cell viability in a dose-dependent manner” and “did not significantly relative cell viability”, respectively. Further, the “inhibition in tumor volume compared to control” value in assay [1] is reported as “caused a significant inhibition in tumor volume compared to control”. Moreover, the “cell death (percent viability vs untreated cells)” value with A498 cells was “resulted in a significant level of cell death”. Moreover, the EdU labeling result in the assay with HT29 cells [2] is reported as “cause significantly higher levels of EdU labeling”; with HCT116 cells [3] it was “have a smaller effect on EdU labeling”. Also, in the assay with HT29 spheroids, the “spheroid growth compared to DMSO-treated spheroids” value was “significantly reduces spheroid growth in a dose-dependent manner”. In addition, in the assay with HCT116 spheroids, the spheroid growth result is reported as “does not reduce spheroid growth”.

Regarding `Nc1ncc(C#Cc2c(F)ccc(NS(=O)(=O)c3cc(Cl)cc(CO)c3Cl)c2F)cn1` [Compound 3], the EdU labeling result with HT29 cells [2] is on record as “cause significantly higher levels of EdU labeling”; with HCT116 cells [3] it was “have a smaller effect on EdU labeling”.
